Read-outs that look alike come from different tables or passages of the source.
How the values were obtained:
[1] = test system: lens glutathione peroxidase (GSH-PX) activity; experiment: Lens glutathione peroxidase (GSH-PX) activity assay, sodium selenite-induced cataract model; format: in vivo, New Zealand rabbit; conditions: after 42 days of administration
Protocol: (§1) P7 days old neonatal New Zealand rabbits, normal grade, and 5 young rabbits per litter were breast-fed with a mother rabbit.
(§2) The experimental young rabbits were randomly divided into 5 groups with 5 rabbits per group.
(§3) 2) Model control group (MC): in the P10 day, the young rabbits were injected subcutaneously with sodium selenite solution (in physiological saline) at a dose of 20 μmol/kg body weight, and after the P15 day, drug-free blank eyes drops were dripped into the right eye 3 times every day for 42 days.
as §3, with “3) Positive” for “2) Model”, “(PC):” for “(MC):”, “Kary Uni eye” for “drug-free blank eyes”, “drops (Santen Pharmaceutical Co., Ltd in Japan)” for “drops”
as §3, with “4) Lanosterol eye drops treatment” for “2) Model control”, “(LT):” for “(MC):”, “lanosterol eye” for “drug-free blank eyes”
as §3, with “5) Lanosterol prodrug 026 eye drops treatment” for “2) Model control”, “(026, the compound of formula (I)):” for “(MC):”, “lanosterol prodrug 026 eye” for “drug-free blank eyes”
(§4) 3) Glutathione peroxidase (GSH-PX) activity assay: GSH-PX activity of the isolated rabbit lens in each group was determined by the method provided in the specification of GSH-PX activity detection kit (Nanjing Jiancheng Bioengineering Institute). The experimental data was analyzed by One-Way ANOVA with SPSS statistical software. The LSD method was used to compare the groups, and the statistical difference level was p<0.05.

[2] = Penetration of ocular drugs in the body and conversion to lanosterol (aqueous humor concentration after eye drops); format: in vivo, New Zealand white rabbit; conditions: for AUC: New Zealand white, rabbit; for Penetration into the aqueous humor: from the cornea or through other routes
Protocol: In this study, New Zealand white rabbits (body weight was more than 2 kg, aged more than 12 weeks) were used as experimental animals. Each compound was studied in two New Zealand white rabbits. Each rabbit was instilled with 50 μL of eye drops in each eye, three eyes were used to collect aqueous humor samples and one eye was used as a backup. The formula of the eye drops was 1.2% hydroxypropyl methylcellulose (E5 size), 20.5% poloxamer (P407 size), 1.6% poloxamer (P188 size), the concentration of the compound was 5 mM, and the eye drops were homogeneous suspensions. After the eye drops were dripped into the rabbit's eyes, the anterior aqueous humor was collected 0.5, 2, 4 and 6 hours after administration. The volume of each sample was not more than 50 μL. Each animal was given mild anesthesia before collecting samples. Three samples were collected at each time point. The collected aqueous humor samples were stored in dry ice immediately after collection or stored in a refrigerator at −80±10° C. After the sample collection, the animals were euthanized. The concentration of the compound in each sample was determined using a triple quadrupole mass spectrometer (API 4000). Tables 3 and 4 show the DMPK determination conditions in vivo; Tables 5 and 6 show the drug concentration in the aqueous humor after compound lanosterol (parent drug) and the prodrug compound were dripped into eyes ([…]).

[3] = test system: lens glutathione peroxidase (GSH-PX) activity; experiment: Lens glutathione peroxidase (GSH-PX) activity assay, ultraviolet-induced cataract model; format: in vivo, New Zealand rabbit; conditions: after 42 days of administration
Protocol: (§5) Adult New Zealand rabbits 2.0-2.5 kg, normal grade, male and female, a total of 25.
(§6) The experimental rabbits were randomly divided into 5 groups with 5 rabbits per group.
(§7) 2) Model control group (MC): 313 nm UV irradiation for 24 hours to make model, then drug-free blank eye drops were dripped into the right eye 3 times every day for 42 days.
(§8) 3) Positive control group (PC): 313 nm UV irradiation for 24 hours to make model, then Kary Uni eye drops (Santen Pharmaceutical Co., Ltd in Japan) were dripped into the right eye 3 times every day for 42 days.
(§9) 4) Lanosterol eye drops treatment group (LT): 313 nm UV irradiation for 24 hours to make model, then lanosterol eye drops were dripped into the right eye 3 times every day for 42 days.
(§10) 5) Lanosterol prodrug 026 eye drops treatment group (026): 313 nm UV irradiation for 24 hours to make model, then the lanosterol prodrug 026 eye drops were dripped into the right eye 3 times every day for 42 days.
as §4, with “data were” for “data was”

[4] = test system: ultraviolet-induced New Zealand rabbit cataract model; experiment: Lens transparency test in vitro, ultraviolet-induced cataract model; format: in vivo; conditions: after 42 days of administration, left eye as self-control
Protocol: as §5, §6, §7, §8, §9, §10
2) Lens transparency test in vitro: on the last day, the animal's eyeball was dissected, the lens containing the capsule was completely separated, and the lens was placed on a grid paper (2.12×2.12 mm). The photographs show the sharpness of the grid photographed through the lens.

[5] = test system: sodium selenite-induced neonatal New Zealand rabbit cataract model; experiment: Slit lamp observation, sodium selenite-induced cataract model; format: in vivo; conditions: eye drops right eye 3 times every day for 42 days
Protocol: as §1, §2, §3
as §3, with “3) Positive” for “2) Model”, “(PC):” for “(MC):”, “Kary Uni eye” for “drug-free blank eyes”, “drops (Santen Pharmaceutical Co., Ltd in Japan)” for “drops”
as §3, with “4) Lanosterol eye drops treatment” for “2) Model control”, “(LT):” for “(MC):”, “lanosterol eye” for “drug-free blank eyes”, “days. […]” for “days.”

[6] = test system: ultraviolet-induced New Zealand rabbit cataract model; experiment: Slit lamp observation, ultraviolet-induced cataract model; format: in vivo; conditions: ultraviolet model (313 nm UV 24 hours); eye drops right eye 3 times every day for 42 days
Protocol: as §5, §6, §7, §8, §9, §10

[7] = test system: sodium selenite-induced neonatal New Zealand rabbit cataract model; experiment: Lens transparency test in vitro, sodium selenite-induced cataract model; format: in vivo; conditions: after 42 days of administration, left eye as self-control
Protocol: as §1, §2, §3
as §3, with “3) Positive” for “2) Model”, “(PC):” for “(MC):”, “Kary Uni eye” for “drug-free blank eyes”, “drops (Santen Pharmaceutical Co., Ltd in Japan)” for “drops”
as §3, with “4) Lanosterol eye drops treatment” for “2) Model control”, “(LT):” for “(MC):”, “lanosterol eye” for “drug-free blank eyes”, “days. […]” for “days.”

[8] = Pre-stability experiment (influencing factors: high temperature, high humidity, light); format: physicochemical; conditions: 60° C. open; relative humidity 92.5% open; light 1 ICH; up to 10 days
Protocol: The crystal form A of the compound of formula (I) was placed under the following 3 conditions and tested for appearance, XRPD, content and related substances at different time points.
10 mg of the crystal form A of the compound of formula (I) was accurately weighted and placed in a sample bottle, and then spread to form a thin layer. The samples were placed under 60° C., 92.5% RH, the mouth of the bottle was directly wrapped with aluminum foil which was punctured to get some small holes to ensure that the sample can fully contact the ambient air. The samples were placed respectively in a dry box and a glass jar containing saturated potassium nitrate solution. The illuminated sample (open, not covered with aluminum foil) and the illuminated control sample (open, the sample bottle was entirely covered with aluminum foil) were placed in the light box. 2 parts of the sample were weighted at each time point as the formal test sample. In addition, about 5 mg of the crystal form A of the compound of formula (I) was weighted for XRPD testing; the sample bottle was wrapped with aluminum foil which was punctured to get some small holes; the samples were also placed in the corresponding drying box and the glass jar containing saturated potassium nitrate solution. […]

[9] = Hygroscopicity study by Dynamic Vapor Sorption (DVS); format: physicochemical; conditions: 25° C. and 80% RH
Protocol: Dynamic Vapor Sorption (DVS)
Detection method: samples (10 mg to 20 mg) were placed in a DVS sample tray for testing.
Equilibrium: dm/dt: 0.01%/min: (Shortest: 10 min, longest: 180 min)
RH (%) gradient for testing: 10%
RH (%) gradient range for testing: 0% to 90% to 0%
The hygroscopicity was evaluated using the following scales:
SMS DVS Advantage Dynamic Vapor Sorption System
10 to 15 mg of the crystal form A of the compound of formula (I) was placed in the DVS sample tray for testing.

CC(C)=CCC[C@@H](C)[C@H]1CC[C@@]2(C)C3=C(CC[C@]12C)[C@@]1(C)CC[C@H](OC(=O)c2ccccc2O)C(C)(C)C1CC3 (some centres unmarked) [the compound of formula (I)]
Effect on lens GSH-PX activity compared with the other treatments [1]: better than that of Kary Uni
Lens GSH-PX activity vs MC group [1]: capable of increasing the GSH-PX activity of the lens
Average concentration of the compound of formula (I) in the aqueous humor ([2]; 250 nmol the compound of formula (I) dripped into each eye, analyte prodrug, 0.5 hour): 41.0 nM
Average concentration of the compound of formula (I) in the aqueous humor ([2]; 250 nmol the compound of formula (I) dripped into each eye, analyte prodrug, 2 hour): 33.3 nM
Average concentration of the compound of formula (I) in the aqueous humor ([2]; 250 nmol the compound of formula (I) dripped into each eye, analyte prodrug, 4 hour): 25.5 nM
Average concentration of the compound of formula (I) in the aqueous humor ([2]; 250 nmol the compound of formula (I) dripped into each eye, analyte prodrug, 6 hour): BQL
AUC ([2]; in vivo, 250 nmol the compound of formula (I) dripped into each eye, analyte prodrug, read-out: AUC (exposure amount) of the compound of formula (I) in the aqueous humor): 0.124 µM·h
Conversion into the parent drug lanosterol ([2]; during the infiltration process): capable of converting into the parent drug lanosterol
Lanosterol concentration and exposure in the aqueous humor compared with lanosterol eye drops ([2]; eye drops): higher concentration and exposure of lanosterol in the aqueous humor
Penetration into the aqueous humor ([2]; eye drops): capable of penetrating into the aqueous humor
Effect on lens GSH-PX activity compared with the other treatments [3]: better than that of Kary Uni
Lens GSH-PX activity vs MC group [3]: capable of increasing the GSH-PX activity of the lens
Lens transparency in vitro of administered right eye [4]: significantly higher than that of the left eye
Cataract symptoms by slit lamp observation, after vs before administration [5]: cataract symptoms were significantly reduced
Cataract symptoms by slit lamp observation, after vs before administration [6]: cataract symptoms were significantly reduced
Lens transparency in vitro of administered right eye [7]: significantly higher than that of the left eye

CC(C)=CCC[C@@H](C)[C@H]1CC[C@@]2(C)C3=C(CC[C@]12C)[C@@]1(C)CC[C@H](O)C(C)(C)[C@@H]1CC3 [Lanosterol]
Effect on lens GSH-PX activity compared with the other treatments [1]: significantly lower than that of 026 and Kary Uni
Lens GSH-PX activity vs MC group [1]: no statistical difference compared to the MC group
AUC ([2]; aqueous humor, topical, 250 nmol per eye, 250 nmol lanosterol dripped into each eye, read-out: AUC (exposure amount) of lanosterol in the aqueous humor): 1.78 µM·h
Penetration into the aqueous humor ([2]; eye drops): capable of penetrating into the aqueous humor
Effect on lens GSH-PX activity compared with the other treatments [3]: significantly lower than that of 026 and Kary Uni
Lens GSH-PX activity vs MC group [3]: no statistical difference compared to the MC group
Lens transparency in vitro of administered right eye [4]: no significant change in lens transparency
Cataract symptoms by slit lamp observation, after vs before administration [5]: no evident change
Cataract symptoms by slit lamp observation, after vs before administration [6]: no evident change
Lens transparency in vitro of administered right eye [7]: no significant change in lens transparency

CC(C)=CCC[C@@H](C)[C@H]1CC[C@@]2(C)C3=C(CC[C@]12C)[C@@]1(C)CC[C@H](OC(=O)c2ccccc2O)C(C)(C)C1CC3 (some centres unmarked)
Crystal form stability (appearance, XRPD, content, related substances) [8]: the crystal form has not changed after the experiment, and its stability is good
Hygroscopic weight gain (ΔW) [9]: 0.747%
Hygroscopicity scale [9]: slightly hygroscopic

Source: US11149055B2, “Crystal form of lanosterol prodrug compound and application thereof” (GUANGZHOU OCUSUN OPHTHALMIC BIOTECHNOLOGY CO., LTD., priority 2018, dated 2021)
